From PubChem BioAssay (NCI)
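Method: 48-hour compound exposure of cells in 96-well plates, five concentrations, linear interpolation of endpoints. GI50 is the concentration that inhibits growth by half. Definition used: TGI = concentration required for complete inhibition of growth.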

Key:
Assay in all cases: inhibition of tumour cell growth, NCI panel, 48 h
[1] = test system: 786-0 renal
[2] = test system: A498 renal
[3] = test system: A549 NSCLC
[4] = test system: ACHN renal
[5] = test system: BT-549 breast
[6] = test system: CCRF-CEM leukemia
[7] = test system: COLO 205 colon
[8] = test system: DU-145 prostate
[9] = test system: EKVX NSCLC
[10] = test system: HCC-2998 colon
[11] = test system: HCT-116 colon
[12] = test system: HCT-15 colon
[13] = test system: HL-60(TB) leukemia
[14] = test system: HOP-62 NSCLC
[15] = test system: HOP-92 NSCLC
[16] = test system: HS 578T breast
[17] = test system: HT29 colon
[18] = test system: IGROV1 ovarian
[19] = test system: K-562 leukemia
[20] = test system: KM12 colon
[21] = test system: LOX IMVI melanoma
[22] = test system: M14 melanoma
[23] = test system: MALME-3M melanoma
[24] = test system: MCF7 breast
[25] = test system: MDA-MB-231 breast
[26] = test system: MDA-MB-435
[27] = test system: MDA-MB-468 breast
[28] = test system: MOLT-4 leukemia
[29] = test system: NCI-H226 lung
[30] = test system: NCI-H23 lung
[31] = test system: NCI-H460 lung
[32] = test system: NCI-H522 lung
[33] = test system: OVCAR-3 ovarian
[34] = test system: OVCAR-4 ovarian
[35] = test system: OVCAR-5 ovarian
[36] = test system: OVCAR-8 ovarian
[37] = test system: PC-3 prostate
[38] = test system: RPMI-8226 leukemia
[39] = test system: RXF 393 renal
[40] = test system: SF-268 CNS
[41] = test system: SF-295 CNS
[42] = test system: SF-539 CNS
[43] = test system: SK-MEL-2 melanoma
[44] = test system: SK-MEL-28 melanoma
[45] = test system: SK-MEL-5 melanoma
[46] = test system: SK-OV-3 ovarian
[47] = test system: SN12C renal
[48] = test system: SNB-19 CNS
[49] = test system: SNB-75 CNS
[50] = test system: SR leukemia
[51] = test system: T-47D breast
[52] = test system: TK-10 renal
[53] = test system: U251 CNS
[54] = test system: UACC-257 melanoma
[55] = test system: UACC-62 melanoma
[56] = test system: UO-31 renal

Compound: CN(C)C(=O)c1cc(-c2ccc3ncnc(N4CCc5cc(F)c(Cl)cc54)c3c2)cnc1N
- GI50 [1]: 0.129 µM
- TGI [1]: 1.43 µM
- GI50 [2]: 0.127 µM
- TGI [2]: 0.459 µM
- GI50 [3]: 0.113 µM
- TGI [3]: 1.49 µM
- GI50 [4]: 0.217 µM
- TGI [4]: 3.22 µM
- GI50 [5]: 0.0747 µM
- TGI [5]: 0.437 µM
- GI50 [6]: 0.137 µM
- GI50 [7]: 0.225 µM
- TGI [7]: 0.54 µM
- GI50 [8]: 0.095 µM
- TGI [8]: > 100 µM
- GI50 [9]: 0.131 µM
- TGI [9]: 0.741 µM
- GI50 [10]: 0.165 µM
- TGI [10]: 1.03 µM
- GI50 [11]: 0.111 µM
- TGI [11]: 0.296 µM
- GI50 [12]: 0.127 µM
- TGI [12]: 1.42 µM
- GI50 [13]: 0.0575 µM
- TGI [13]: 0.682 µM
- GI50 [14]: 0.154 µM
- TGI [14]: 2.31 µM
- GI50 [15]: 0.144 µM
- TGI [15]: 0.673 µM
- GI50 [16]: 0.0309 µM
- TGI [16]: 0.437 µM
- GI50 [17]: 0.141 µM
- TGI [17]: 1.58 µM
- GI50 [18]: 0.0301 µM
- TGI [18]: 0.161 µM
- GI50 [19]: 0.281 µM
- TGI [19]: > 100 µM
- GI50 [20]: 0.243 µM
- TGI [20]: 2.07 µM
- GI50 [21]: 0.17 µM
- TGI [21]: 1.17 µM
- GI50 [22]: 0.277 µM
- GI50 [23]: 0.0455 µM
- TGI [23]: 0.366 µM
- GI50 [24]: 0.0322 µM
- TGI [24]: 1.31 µM
- GI50 [25]: 0.203 µM
- TGI [25]: 1.52 µM
- GI50 [26]: 0.187 µM
- TGI [26]: 3.18 µM
- GI50 [27]: 0.043 µM
- TGI [27]: 0.178 µM
- GI50 [28]: 0.0638 µM
- TGI [28]: 3.95 µM
- GI50 [29]: 0.131 µM
- TGI [29]: 3.37 µM
- GI50 [30]: 0.194 µM
- TGI [30]: 2.86 µM
- GI50 [31]: 0.161 µM
- TGI [31]: > 37.3 µM
- GI50 [32]: 0.214 µM
- TGI [32]: 1.51 µM
- GI50 [33]: 0.128 µM
- TGI [33]: 0.743 µM
- GI50 [34]: 0.229 µM
- TGI [34]: 11.3 µM
- GI50 [35]: 0.168 µM
- TGI [35]: 2.45 µM
- GI50 [36]: 0.216 µM
- TGI [36]: 7.5 µM
- GI50 [37]: 0.104 µM
- TGI [37]: 7.19 µM
- GI50 [38]: 0.0572 µM
- TGI [38]: 0.419 µM
- GI50 [39]: 0.0379 µM
- TGI [39]: 0.317 µM
- GI50 [40]: 0.149 µM
- TGI [40]: 4.27 µM
- GI50 [41]: 0.244 µM
- TGI [41]: 1.25 µM
- GI50 [42]: 0.135 µM
- TGI [42]: 0.7 µM
- GI50 [43]: 0.191 µM
- TGI [43]: 0.474 µM
- GI50 [44]: 0.195 µM
- TGI [44]: 5.18 µM
- GI50 [45]: 0.125 µM
- TGI [45]: 0.276 µM
- GI50 [46]: 0.316 µM
- TGI [46]: 1.75 µM
- GI50 [47]: 0.0698 µM
- TGI [47]: 3.02 µM
- GI50 [48]: 0.276 µM
- TGI [48]: 3.44 µM
- GI50 [49]: 0.023 µM
- TGI [49]: 0.649 µM
- GI50 [50]: 0.0765 µM
- TGI [50]: 0.815 µM
- GI50 [51]: 0.0323 µM
- TGI [51]: 1.43 µM
- GI50 [52]: 0.137 µM
- TGI [52]: 1.21 µM
- GI50 [53]: 0.2 µM
- TGI [53]: 2.24 µM
- GI50 [54]: 0.198 µM
- TGI [54]: 3.92 µM
- GI50 [55]: 0.109 µM
- TGI [55]: 0.44 µM
- GI50 [56]: 0.0321 µM
- TGI [56]: 1.86 µM
